Experiments:
Test in all cases: Cancer cell growth inhibition, 72 h treatment
Type in all cases: cell-based
[1] = test system: 143b; conditions: Homo sapiens, Osteosarcoma 143b, Alamar Blue
Protocol: (§1) Cell culture-based assays were used to evaluate the ability of compounds of the invention to inhibit cancer cell growth.
(§2) Cells were obtained from the American Type Culture Collection (ATCC) and the European Collection of Cell Cultures. Cells were thawed in their appropriate media plus supplements (see table below). Cells were passaged at confluence by washing once in HBSS cation-free followed by a 3 minutes incubation with trypsin ([0.5 µg/ml]/EDTA [0.2 µg/ml]) (Gibco-BRL, 15400054) solution in HBSS at 37°C (except non-adherent cell lines - hematologic), and transferred to their appropriate media plus supplements. Prior to seeding at defined cell concentration, cells were recovered in medium, centrifuged, taken up in medium and counted.
(§3) All treatments were performed in triplicate. Experiments were carried out in 96-well cell culture plates (Cultek) and the cell lines seeded at the density mentioned in the table above and cultured at 37°C with 5% CO2. After 24h, media were supplemented by 100 µl/well of diluted test compound at variable final concentrations and incubated for 72 hours. Then, AlamarBlue® Reagent (Biosource DAL1100) was added to each well and incubated at 37°C for 4 hours. Relative fluorescent intensity that correlates with the number of living cells was read in a Cytofluor plate reader (Millipore) at 535/590 nm (Excitation/emission). After reading the AlamarBlue® signal, the hexosaminidase activitity was measured according to the following protocol: medium was removed and cells were washed once with PBS. 60 µl of substrate solution (p-nitrophenol-N-acetyl-beta-D-glucosaminide 7.5 mM [Sigma N-9376], sodium citrate 0.1 M, pH 5.0, 0.25% Triton X-1 00) was added to each well and incubated at 37°C for 1-2 hours; after this incubation time, a bright yellow colour appears; then, plates could be developed by adding 90 µl of developer solution (Glycine 50 mM, pH 10.4; EDTA 5 mM), and absorbance was recorded at 405 nm.
(§4) Note: In all cases assays were performed in Alamar Blue with the exception of those indicated (* = Hexosaminidase assay)

[2] = test system: A431; conditions: Homo sapiens, A-431, Epidermoid A431, Alamar Blue
Protocol: as §1, §2, §3, §4

[3] = test system: A549; conditions: Homo sapiens, Lung cancer A549, Alamar Blue
Protocol: as §1, §2, §3, §4

[4] = test system: BxPC-3; conditions: Homo sapiens, Pancreatic cancer BxPC-3, Alamar Blue
Protocol: as §1, §2, §3, §4

[5] = test system: CCRF-CEM; conditions: Homo sapiens, Hematologic CCRF-CEM, Alamar Blue
Protocol: as §1, §2, §3, §4

[6] = test system: COLO 205; conditions: Homo sapiens, Colon cancer COLO 205, Alamar Blue
Protocol: as §1, §2, §3, §4

[7] = test system: DU-145; conditions: Homo sapiens, Prostate cancer DU-145, Alamar Blue
Protocol: as §1, §2, §3, §4

[8] = test system: Daoy; conditions: Homo sapiens, Brain Daoy, Alamar Blue
Protocol: as §1, §2, §3, §4

[9] = test system: HT-1080; conditions: Homo sapiens, Fibrosarcoma HT-1080, Alamar Blue
Protocol: as §1, §2, §3, §4

[10] = test system: HT-29; conditions: Homo sapiens, Colon cancer HT-29, Alamar Blue
Protocol: as §1, §2, §3, §4

[11] = test system: HepG2; conditions: Homo sapiens, Liver cancer HepG2, Alamar Blue
Protocol: as §1, §2, §3, §4

[12] = test system: Jurkat; conditions: Homo sapiens, Hematologic Jurkat, Alamar Blue
Protocol: as §1, §2, §3, §4

[13] = test system: K562; conditions: Homo sapiens, Hematologic K562, Alamar Blue
Protocol: as §1, §2, §3, §4

[14] = test system: LNCaP; conditions: Homo sapiens, Prostate cancer LNCaP, Alamar Blue
Protocol: as §1, §2, §3, §4

[15] = test system: LS174T; conditions: Homo sapiens, Colon cancer LS174T, Alamar Blue
Protocol: as §1, §2, §3, §4

[16] = test system: LoVo; conditions: Homo sapiens, Colon cancer LoVo, Alamar Blue
Protocol: as §1, §2, §3, §4

[17] = test system: MCF-7; conditions: Homo sapiens, MCF7, Breast cancer MCF-7, Alamar Blue
Protocol: as §1, §2, §3, §4

[18] = test system: MDA-MB-435; conditions: Homo sapiens, Melanoma MDA-MB-435, Alamar Blue
Protocol: as §1, §2, §3, §4

[19] = test system: MIA PaCa-2; conditions: Homo sapiens, Pancreatic cancer MIA PaCa-2, Alamar Blue
Protocol: as §1, §2, §3, §4

[20] = test system: NCI-H1650; conditions: Homo sapiens, Lung cancer NCI-H1650, Alamar Blue
Protocol: as §1, §2, §3, §4

[21] = test system: NCI-H1975; conditions: Homo sapiens, Lung cancer NCI-H1975, Alamar Blue
Protocol: as §1, §2, §3, §4

[22] = test system: NCI-H358; conditions: Homo sapiens, Lung cancer NCI-H358, Alamar Blue
Protocol: as §1, §2, §3, §4

[23] = test system: RAMOS; conditions: Homo sapiens, Hematologic RAMOS, Alamar Blue
Protocol: as §1, §2, §3, §4

[24] = test system: RCC 786-O; conditions: Homo sapiens, 786-0, Renal RCC 786-O, Alamar Blue
Protocol: as §1, §2, §3, §4

[25] = test system: RPMI-8226; conditions: Homo sapiens, Multiple mieloma RPMI-8226, Alamar Blue
Protocol: as §1, §2, §3, §4

[26] = test system: SK-HEP-1; conditions: Homo sapiens, SK-HEP1, Liver cancer SK-HEP-1, Alamar Blue
Protocol: as §1, §2, §3, §4

[27] = test system: SK-Mel-28; conditions: Homo sapiens, Melanoma SK-Mel-28, Alamar Blue
Protocol: as §1, §2, §3, §4

[28] = test system: SK-OV-3; conditions: Homo sapiens, Ovarian cancer SK-OV-3, Alamar Blue
Protocol: as §1, §2, §3, §4

[29] = test system: SW480; conditions: Homo sapiens, Colon cancer SW480, Alamar Blue
Protocol: as §1, §2, §3, §4

[30] = test system: T47D; conditions: Homo sapiens, Breast cancer T47D, Alamar Blue
Protocol: as §1, §2, §3, §4

[31] = test system: U-373 MG; conditions: Homo sapiens, U373 MG, Brain U-373 MG, Alamar Blue
Protocol: as §1, §2, §3, §4

EC50 [1] | EC50 [2] | EC50 [3] | EC50 [4] | EC50 [5] | EC50 [6] | EC50 [7] | EC50 [8] | EC50 [9] | EC50 [10] | EC50 [11] | EC50 [12] | EC50 [13] | EC50 [14] | EC50 [15] | EC50 [16] | EC50 [17] | EC50 [18] | EC50 [19] | EC50 [20] | Structure (SMILES) | further results
2000 nM | 970 nM | 4000 nM | 2900 nM | 330 nM | 3800 nM | 1200 nM | 1300 nM | 1700 nM | 1500 nM | 380 nM | 1700 nM | 2000 nM | 110 nM | 550 nM | 3090 nM | 23000 nM | 370 nM | 3000 nM | 790 nM | CC(C)C[C@H](NC(=O)[C@H]1N[C@@H](c2ccccc2)[C@@H]([N+](=O)[O-])[C@@H]1c1ccccc1)B(O)O [Example 4, (R)-3-methyl-1-((2S,3R,4S,5S)-4-nitro-3,5-diphenylpyrrolidine-2-carboxamido)butylboronic acid] | EC50 [21]: 41000 nM; EC50 [22]: 2400 nM; EC50 [23]: 1000 nM; EC50 [24]: 1700 nM; EC50 [25]: 270 nM; EC50 [26]: 290 nM; EC50 [27]: 780 nM; EC50 [28]: 2200 nM; EC50 [29]: 610 nM; EC50 [30]: 2100 nM; EC50 [31]: 7300 nM
5000 nM | 970 nM | 7000 nM | 4600 nM | 670 nM | 11000 nM | 1900 nM | 1300 nM | 1700 nM | 3500 nM | 1400 nM | 2500 nM | 6300 nM | 390 nM | 720 nM | 6700 nM | 700 nM | 1000 nM | 5700 nM | 3300 nM | CC(C)C[C@H](NC(=O)[C@@H]1N[C@H](c2ccccc2)[C@@H]([N+](=O)[O-])[C@@H]1c1ccccc1)B(O)O [Example 1, (R)-3-methyl-1-((2R,3R,4S,5R)-4-nitro-3,5-diphenylpyrrolidine-2-carboxamido)butylboronic acid] | EC50 [21]: 25000 nM; EC50 [22]: 790 nM; EC50 [23]: 2400 nM; EC50 [24]: 4700 nM; EC50 [25]: 150 nM; EC50 [26]: 490 nM; EC50 [27]: 1300 nM; EC50 [28]: 4100 nM; EC50 [29]: 1100 nM; EC50 [30]: 10000 nM; EC50 [31]: 44000 nM

Source: patent EP2910557A1, “Enantiopure tetrasubstituted pyrrolidines as scaffolds for proteasome inhibitors and medicinal applications thereof” (Ikerchem, S.L., priority 2014, dated 2015)
